Reference: PubChem BioAssay (NCI)
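Five concentrations, 48 hours, 96-well plates. Here, GI50 denotes the concentration required for 50% inhibition of growth. The concentration for full growth arrest is given as TGI.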

Tests used:
Assay in all cases: NCI tumour cell line growth inhibition, 48 h
[1] = test system: EKVX NSCLC
[2] = test system: HCC-2998 colon
[3] = test system: MDA-MB-435
[4] = test system: NCI-H226 lung
[5] = test system: NCI-H460 lung
[6] = test system: OVCAR-5 ovarian
[7] = test system: SF-539 CNS
[8] = test system: SK-MEL-28 melanoma
[9] = test system: SW-620 colon
[10] = test system: TK-10 renal

Row | SMILES | GI50 [1] [µM] | TGI [1] [µM] | GI50 [2] [µM] | TGI [2] [µM] | GI50 [3] [µM] | TGI [3] [µM] | GI50 [4] [µM] | TGI [4] [µM] | GI50 [5] [µM] | TGI [5] [µM] | GI50 [6] [µM] | TGI [6] [µM] | GI50 [7] [µM] | TGI [7] [µM] | GI50 [8] [µM] | TGI [8] [µM] | GI50 [9] [µM] | TGI [9] [µM] | GI50 [10] [µM] | TGI [10] [µM]
1 | CNC(=O)c1c(NC(=O)c2ccc(C(C)(C)C)cc2)sc2c1CCC(=O)C2 | 0.381 | 1.7 | 0.581 | 2.04 | 0.335 | 1.42 | 0.558 | 1.99 | 0.352 | 1.47 | 0.341 | 1.41 | 0.244 | 1.22 | 0.506 | 1.87 | 0.0984 | 1.27 | 0.374 | 1.97
2 | Cc1ccc(/C=N/Nc2nc(Nc3ccccc3)nc(-n3nc(C)cc3C)n2)cc1 | 3 | 31.5 | 2.71 | 6.6 | 4.84 | 37.6 | 4.88 | 37.7 | 2.11 | 8.91 | 15.4 | > 100 | 4.5 | 25.1 | 6.12 | > 100 | 5.75 | > 100 | 3.52 | 22.9
3 | CN(C)c1ccc2oc(=O)c3ccccc3c2c1 | – | > 100 | – | > 100 | – | > 100 | – | > 100 | – | > 100 | – | > 100 | – | > 100 | – | > 100 | – | > 100 | – | > 100
4 | COC(=O)c1ccc(CN2C(=O)C(Cl)=C(Nc3cccc(Cl)c3C)C2=O)cc1 | 46.8 | > 100 | 32.5 | 67.5 | 7.89 | 37.9 | 11 | > 100 | 34.5 | > 100 | 58.1 | > 100 | 23.1 | 58.7 | 15.2 | > 100 | 3.45 | 26.4 | 47.8 | > 100
5 | NC(=O)c1cc([N+](=O)[O-])c(Cl)c([N+](=O)[O-])c1Cl | 2.08 | 4.85 | 1.82 | 3.45 | 1.93 | 3.73 | 1.79 | 3.36 | 1.74 | 3.49 | 2.3 | 4.59 | 1.99 | 3.79 | 1.74 | 3.15 | 0.291 | 1.07 | 1.61 | 2.99
6 | COc1cccc(CC(C)=C(c2ccc(OCCN3CCCCC3)cc2)c2ccc(OCCN3CCCCC3)cc2)c1 | 2.03 | 4.48 | 1.74 | 3.72 | 1.67 | 3.57 | 2.33 | 5.12 | 1.96 | 3.93 | 2.02 | 3.99 | 2.11 | 4.11 | 2.12 | 4.11 | 1.74 | 3.78 | 2.36 | 4.54
7 | O=C(Nc1cccc(O)c1)c1ccc(NC2=C(Cl)C(=O)N(Cc3ccc(Cl)cc3Cl)C2=O)cc1 | 6.74 | 13.6 | 18.9 | 33.8 | 1.89 | 3.63 | 6.78 | 26.7 | 2.86 | 8.91 | 18.8 | 34.1 | 6.32 | 11.8 | 3.41 | 10.1 | 2.21 | 6.42 | 2.07 | 4.82
8 | CC1(C)CNc2cc(NC(=O)c3cccnc3NCc3ccncc3)ccc21 | 23.6 | > 95.2 | 39 | > 100 | 26.1 | > 100 | 11 | 46.1 | 32.3 | > 100 | 50.9 | > 100 | 7.5 | 58.9 | 22.1 | > 100 | 48.2 | > 100 | 43.1 | > 100
9 | CCN(Cc1ccccc1)C1CCN(Cc2cc(Br)ccc2O)CC1 | 31.9 | > 100 | 33.7 | > 100 | 30.2 | > 100 | > 100 | > 100 | 58.2 | > 100 | > 100 | > 100 | 36.7 | > 100 | 22 | 59.4 | 27.2 | > 100 | > 100 | > 100
10 | CCc1ccc(CCC(=O)Nc2ncc(Cc3ccc(Cl)cc3)s2)o1 | 0.527 | > 100 | 0.812 | > 100 | 0.147 | 0.366 | – | > 100 | 0.335 | > 100 | 0.615 | > 100 | 0.245 | 0.727 | 4.27 | > 100 | 0.375 | > 100 | – | > 100
11 | CCOC(=O)c1cc2c(cc1Cl)SC(=Nc1ccccc1)N(S(=O)(=O)c1ccc(Cl)cc1)S2(=O)=O | 16.6 | 31.8 | 13.5 | 27.9 | 12.9 | 28.4 | 6.03 | 28.2 | 18.8 | 46.7 | 19.4 | 36.8 | 18.3 | 34.8 | 21.6 | 74.6 | 14.6 | 32.6 | 16.8 | 32.3
12 | Nc1nc([Se])c2ncn(C3OC(CO)C(O)C3O)c2n1 (stereo not drawn) | 37.6 | > 100 | 17.9 | > 100 | 15.1 | > 100 | 9.29 | > 100 | 4.54 | 57.1 | 8.24 | > 100 | 19.3 | > 100 | > 100 | > 100 | 28.8 | > 100 | 7.55 | > 100
